The structures appear in SMILES notation.

The results in this text go back to ChEMBL document CHEMBL4428040, “8-Hydroxyquinolines in medicinal chemistry: A structural perspective” (Eur J Med Chem, 2016).

In assay [1] the test system is HeLa. Kind of assay: Ionophoric activity in human HeLa cells assessed as intracellular metal accumulation at 11.3 uM cotreated with Ni incubated for 6 hrs by ICP-AES analysis relative to control. In kind it is functional.
In assay [2] the test system is HeLa. Put plainly: Ionophoric activity in human HeLa cells assessed as intracellular metal accumulation at 4.2 uM cotreated with Fe incubated for 6 hrs by ICP-AES analysis relative to control. In kind it is functional.
Assay [3] concerns HeLa. Kind of assay: Cytotoxicity against human HeLa cells assessed as reduction in cell viability after 48 hrs by resazurin assay. In kind it is functional, cell-based. A general note: Alamar Blue is a resazurin reagent that responds to reducing activity.
Assay [4] deals with HeLa. Kind of assay: Cytotoxicity against human HeLa cells assessed as reduction in cell viability at 1:1 CuCl2:compound molar ratio after 48 hrs by resazurin assay. It counts as functional, cell-based.
Assay [5] concerns HeLa. Kind of assay: Ionophoric activity in human HeLa cells assessed as intracellular metal accumulation at 11.3 uM cotreated with Co incubated for 6 hrs by ICP-AES analysis relative to control. In kind it is functional.
The subject of assay [6] is HeLa. Put plainly: Ionophoric activity in human HeLa cells assessed as intracellular metal accumulation at 1.8 uM cotreated with Cu incubated for 6 hrs by ICP-AES analysis relative to control. It counts as functional.
The subject of assay [7] is HeLa. Kind of assay: Potency index, ratio of CQ IC50 to compound IC50 for human HeLa cells. In kind it is functional.
The test system of assay [8] is HeLa. Kind of assay: Growth inhibition of human HeLa cells. It counts as functional, cell-based.
Assay [9] deals with HeLa. Put plainly: Growth inhibition of human HeLa cells in presence of copper. In kind it is functional, cell-based.

Consider `Oc1cccc2ccc(CCc3ccc4cccc(O)c4n3)nc12`, for which the “fold change (FC)” value in [1] is given as 2.1; in assay [2], 1.8; in assay [5], 2.1; in [6] it was 13.7. For the same compound, the IC50 turned out to be 23700 nM in assay [3] and 1800 nM in assay [4].

For `Cc1ccc(OS(=O)(=O)N2CCN(Cc3cc([N+](=O)[O-])c4cccnc4c3O)CC2)cc1`, the “Ratio IC50” value in assay [7] is on record as 26. The IC50 in assay [8] amounted to 710 nM; in assay [9], 60 nM.

On to `Oc1cccc2cccnc12` [OXYQUINOLINE], for which, in assay [3], the IC50 was found to be 13500 nM.

Broadly, the IC50 is the point on the concentration scale where inhibition reaches its midpoint.
